In article PMC6271078 (Molecules, 2014):
Counter-ions that a name gives are not always drawn.

What was measured:
Aqueous solubility = assay type: physicochemical; details: for Times Increased of Aqueous Solubility (Comp. vs. Rapa): ratio of compound solubility to Rapa solubility; for solubility / Aqueous Solubility: water

Row | melting point | Times Increased of Aqueous Solubility (Comp. vs. Rapa) (Aqueous solubility) | solubility (Aqueous solubility) | Aqueous Solubility (Aqueous solubility) | Structure (SMILES)
1 | 138 to 140 °C | – | – | – | CO[C@H]1C[C@@H]2CC[C@@H](C)[C@@](O)(O2)C(=O)C(=O)N2CCCC[C@H]2C(=O)O[C@H]([C@H](C)C[C@@H]2CC[C@@H](OC(=O)C[n+]3cccc(C)c3)[C@H](OC)C2)CC(=O)[C@H](C)/C=C(\C)[C@@H](O)[C@@H](OC)C(=O)[C@H](C)C[C@H](C)/C=C/C=C/C=C/1C (as salt: ammonium) [Compound 4, Rapa-42-ester of 2-(3-methylpyridinium-1-yl)acetic Acid]
2 | 138 to 140 °C | – | – | – | CO[C@H]1C[C@@H]2CC[C@@H](C)[C@@](O)(O2)C(=O)C(=O)N2CCCC[C@H]2C(=O)O[C@H]([C@H](C)C[C@@H]2CC[C@@H](O)[C@H](OC)C2)CC(=O)[C@H](C)/C=C(\C)[C@@H](OC(=O)C[n+]2cccc(C)c2)[C@@H](OC)C(=O)[C@H](C)C[C@H](C)/C=C/C=C/C=C/1C (as salt: ammonium) [Compound 9, Rapa-31-ester of 2-(3-methylpyridinium-1-yl)acetic Acid]
3 | 140 to 142 °C | – | – | – | CO[C@H]1C[C@@H]2CC[C@@H](C)[C@@](O)(O2)C(=O)C(=O)N2CCCC[C@H]2C(=O)O[C@H]([C@H](C)C[C@@H]2CC[C@@H](O)[C@H](OC)C2)CC(=O)[C@H](C)/C=C(\C)[C@@H](OC(=O)C[n+]2ccccc2)[C@@H](OC)C(=O)[C@H](C)C[C@H](C)/C=C/C=C/C=C/1C (as salt: ammonium) [Compound 10, Rapa-31-ester of 2-(pyridinium-1-yl)acetic Acid]
4 | 145 to 148 °C | – | – | – | CO[C@H]1C[C@@H]2CC[C@@H](C)[C@@](O)(O2)C(=O)C(=O)N2CCCC[C@H]2C(=O)O[C@H]([C@H](C)C[C@@H]2CC[C@@H](O)[C@H](OC)C2)CC(=O)[C@H](C)/C=C(\C)[C@@H](OC(=O)C[n+]2ccc(C)cc2)[C@@H](OC)C(=O)[C@H](C)C[C@H](C)/C=C/C=C/C=C/1C (as salt: ammonium) [Compound 11, Rapa-31-ester of 2-(4-methylpyridinium-1-yl)acetic Acid]
5 | – | 11 | 28 µg/mL | – | CO[C@H]1C[C@@H]2CC[C@@H](C)[C@@](O)(O2)C(=O)C(=O)N2CCCC[C@H]2C(=O)O[C@H]([C@H](C)C[C@@H]2CC[C@@H](OC(=O)C[n+]3cscc3C)[C@H](OC)C2)CC(=O)[C@H](C)/C=C(\C)[C@@H](O)[C@@H](OC)C(=O)[C@H](C)C[C@H](C)/C=C/C=C/C=C/1C [Compound 2, Rapa-42-ester of 2-(4-methylthiazolium-3-yl)acetic Acid]
6 | – | 10 | 25 µg/mL | – | CO[C@H]1C[C@@H]2CC[C@@H](C)[C@@](O)(O2)C(=O)C(=O)N2CCCC[C@H]2C(=O)O[C@H]([C@H](C)C[C@@H]2CC[C@@H](OC(=O)C[n+]3ccccc3)[C@H](OC)C2)CC(=O)[C@H](C)/C=C(\C)[C@@H](O)[C@@H](OC)C(=O)[C@H](C)C[C@H](C)/C=C/C=C/C=C/1C [Compound 3, Rapa-42-ester of 2-(pyridinium-1-yl)acetic Acid]
7 | – | 2577 | 6700 µg/mL | – | CO[C@H]1C[C@@H]2CC[C@@H](C)[C@@](O)(O2)C(=O)C(=O)N2CCCC[C@H]2C(=O)O[C@H]([C@H](C)C[C@@H]2CC[C@@H](OC(=O)C[n+]3cccc(C)c3)[C@H](OC)C2)CC(=O)[C@H](C)/C=C(\C)[C@@H](O)[C@@H](OC)C(=O)[C@H](C)C[C@H](C)/C=C/C=C/C=C/1C [Compound 4, Rapa-42-ester of 2-(3-methylpyridinium-1-yl)acetic Acid]
8 | – | 2308 | 6000 µg/mL | – | CO[C@H]1C[C@@H]2CC[C@@H](C)[C@@](O)(O2)C(=O)C(=O)N2CCCC[C@H]2C(=O)O[C@H]([C@H](C)C[C@@H]2CC[C@@H](OC(=O)C[n+]3ccc(C)cc3)[C@H](OC)C2)CC(=O)[C@H](C)/C=C(\C)[C@@H](O)[C@@H](OC)C(=O)[C@H](C)C[C@H](C)/C=C/C=C/C=C/1C [Compound 6, Rapa-42-ester of 2-(4-methylpyridinium-1-yl)acetic Acid]
9 | – | 8962 | 23300 µg/mL | – | CO[C@H]1C[C@@H]2CC[C@@H](C)[C@@](O)(O2)C(=O)C(=O)N2CCCC[C@H]2C(=O)O[C@H]([C@H](C)C[C@@H]2CC[C@@H](O)[C@H](OC)C2)CC(=O)[C@H](C)/C=C(\C)[C@@H](OC(=O)C[n+]2csc(C)c2C)[C@@H](OC)C(=O)[C@H](C)C[C@H](C)/C=C/C=C/C=C/1C [Compound 7, Rapa-31-ester of 2-(4,5-dimethylthiazolium-3-yl)acetic Acid]
10 | – | 10269 | 26700 µg/mL | – | CO[C@H]1C[C@@H]2CC[C@@H](C)[C@@](O)(O2)C(=O)C(=O)N2CCCC[C@H]2C(=O)O[C@H]([C@H](C)C[C@@H]2CC[C@@H](O)[C@H](OC)C2)CC(=O)[C@H](C)/C=C(\C)[C@@H](OC(=O)C[n+]2cccc(C)c2)[C@@H](OC)C(=O)[C@H](C)C[C@H](C)/C=C/C=C/C=C/1C [Compound 9, Rapa-31-ester of 2-(3-methylpyridinium-1-yl)acetic Acid]
11 | – | – | 62000 µg/mL | 52600 µg/mL | CO[C@H]1C[C@@H]2CC[C@@H](C)[C@@](O)(O2)C(=O)C(=O)N2CCCC[C@H]2C(=O)O[C@H]([C@H](C)C[C@@H]2CC[C@@H](O)[C@H](OC)C2)CC(=O)[C@H](C)/C=C(\C)[C@@H](OC(=O)C[n+]2ccccc2)[C@@H](OC)C(=O)[C@H](C)C[C@H](C)/C=C/C=C/C=C/1C [Compound 10, Rapa-31-ester of 2-(pyridinium-1-yl)acetic Acid]
12 | – | – | 62000 µg/mL | 62500 µg/mL | CO[C@H]1C[C@@H]2CC[C@@H](C)[C@@](O)(O2)C(=O)C(=O)N2CCCC[C@H]2C(=O)O[C@H]([C@H](C)C[C@@H]2CC[C@@H](O)[C@H](OC)C2)CC(=O)[C@H](C)/C=C(\C)[C@@H](OC(=O)C[n+]2ccc(C)cc2)[C@@H](OC)C(=O)[C@H](C)C[C@H](C)/C=C/C=C/C=C/1C [Compound 11, Rapa-31-ester of 2-(4-methylpyridinium-1-yl)acetic Acid]

The next lines start with the compound.

Row | Structure (SMILES) | melting point | Times Increased of Aqueous Solubility (Comp. vs. Rapa) (Aqueous solubility) | solubility (Aqueous solubility) | Aqueous Solubility (Aqueous solubility)
13 | CO[C@H]1C[C@@H]2CC[C@@H](C)[C@@](O)(O2)C(=O)C(=O)N2CCCC[C@H]2C(=O)O[C@H]([C@H](C)C[C@@H]2CC[C@@H](OC(=O)C[n+]3cscc3C)[C@H](OC)C2)CC(=O)[C@H](C)/C=C(\C)[C@@H](O)[C@@H](OC)C(=O)[C@H](C)C[C@H](C)/C=C/C=C/C=C/1C (as salt: ammonium) [Compound 2, Rapa-42-ester of 2-(4-methylthiazolium-3-yl)acetic Acid] | 130 to 133 °C | – | – | –
14 | CO[C@H]1C[C@@H]2CC[C@@H](C)[C@@](O)(O2)C(=O)C(=O)N2CCCC[C@H]2C(=O)O[C@H]([C@H](C)C[C@@H]2CC[C@@H](OC(=O)C[n+]3ccccc3)[C@H](OC)C2)CC(=O)[C@H](C)/C=C(\C)[C@@H](O)[C@@H](OC)C(=O)[C@H](C)C[C@H](C)/C=C/C=C/C=C/1C (as salt: ammonium) [Compound 3, Rapa-42-ester of 2-(pyridinium-1-yl)acetic Acid] | 135 to 137 °C | – | – | –
15 | CO[C@H]1C[C@@H]2CC[C@@H](C)[C@@](O)(O2)C(=O)C(=O)N2CCCC[C@H]2C(=O)O[C@H]([C@H](C)C[C@@H]2CC[C@@H](OC(=O)C[n+]3cccc(O)c3)[C@H](OC)C2)CC(=O)[C@H](C)/C=C(\C)[C@@H](O)[C@@H](OC)C(=O)[C@H](C)C[C@H](C)/C=C/C=C/C=C/1C (as salt: ammonium) [Compound 5, Rapa-42-ester of 2-(3-hydroxypyridinium-1-yl)acetic Acid] | 146 to 148 °C | – | – | –
16 | CO[C@H]1C[C@@H]2CC[C@@H](C)[C@@](O)(O2)C(=O)C(=O)N2CCCC[C@H]2C(=O)O[C@H]([C@H](C)C[C@@H]2CC[C@@H](OC(=O)C[n+]3ccc(C)cc3)[C@H](OC)C2)CC(=O)[C@H](C)/C=C(\C)[C@@H](O)[C@@H](OC)C(=O)[C@H](C)C[C@H](C)/C=C/C=C/C=C/1C (as salt: ammonium) [Compound 6, Rapa-42-ester of 2-(4-methylpyridinium-1-yl)acetic Acid] | 157 to 160 °C | – | – | –
17 | CO[C@H]1C[C@@H]2CC[C@@H](C)[C@@](O)(O2)C(=O)C(=O)N2CCCC[C@H]2C(=O)O[C@H]([C@H](C)C[C@@H]2CC[C@@H](O)[C@H](OC)C2)CC(=O)[C@H](C)/C=C(\C)[C@@H](OC(=O)C[n+]2cscc2C)[C@@H](OC)C(=O)[C@H](C)C[C@H](C)/C=C/C=C/C=C/1C (as salt: ammonium) [Compound 8, Rapa-31-ester of 2-(4-methylthiazolium-3-yl)acetic Acid] | 130 to 132 °C | – | – | –
18 | CO[C@H]1C[C@@H]2CC[C@@H](C)[C@@](O)(O2)C(=O)C(=O)N2CCCC[C@H]2C(=O)O[C@H]([C@H](C)C[C@@H]2CC[C@@H](OC(=O)C[n+]3csc(C)c3C)[C@H](OC)C2)CC(=O)[C@H](C)/C=C(\C)[C@@H](O)[C@@H](OC)C(=O)[C@H](C)C[C@H](C)/C=C/C=C/C=C/1C [Compound 1, Rapa-42-ester of 2-(4,5-dimethylthiazolium-3-yl)acetic Acid] | – | 1615 | 4200 µg/mL | –
19 | CO[C@H]1C[C@@H]2CC[C@@H](C)[C@@](O)(O2)C(=O)C(=O)N2CCCC[C@H]2C(=O)O[C@H]([C@H](C)C[C@@H]2CC[C@@H](OC(=O)C[n+]3cccc(O)c3)[C@H](OC)C2)CC(=O)[C@H](C)/C=C(\C)[C@@H](O)[C@@H](OC)C(=O)[C@H](C)C[C@H](C)/C=C/C=C/C=C/1C [Compound 5, Rapa-42-ester of 2-(3-hydroxypyridinium-1-yl)acetic Acid] | – | 4 | 10 µg/mL | –
20 | CO[C@H]1C[C@@H]2CC[C@@H](C)[C@@](O)(O2)C(=O)C(=O)N2CCCC[C@H]2C(=O)O[C@H]([C@H](C)C[C@@H]2CC[C@@H](O)[C@H](OC)C2)CC(=O)[C@H](C)/C=C(\C)[C@@H](OC(=O)C[n+]2cscc2C)[C@@H](OC)C(=O)[C@H](C)C[C@H](C)/C=C/C=C/C=C/1C [Compound 8, Rapa-31-ester of 2-(4-methylthiazolium-3-yl)acetic Acid] | – | 3846 | 10000 µg/mL | –
